Patent US9138659B2, “Compositions, methods, and systems relating to controlled crystallization and/or nucleation of molecular species” (Massachusetts Institute of Technology, priority 2010, dated 2015)

Test: Nucleation induction time of ASA / ACM with PEGDA or PEGDA-co-AM microgels in 38/62 ethanol/water
Format: physicochemical
Details: for Average nucleation induction time τ (stretched exponential fit): ASA S=2.1; for τ1 (two-exponential fit) / τ2 (two-exponential fit): ASA; for optimum mesh size for inducing ASA nucleation: PEGDA particles
From the text: Nucleation kinetics of model compounds was investigated by measuring the nucleation induction time probability distribution. Nucleation induction time is generally time elapsed prior to the formation of a detectable amount of the new crystalline phase. It is a useful indicator of the surface nucleation activity because it can be dramatically shortened when the presence of an interface lowers the free energy barrier of nucleation. Due to the stochastic nature of nucleation events, a large number of experiments were performed to obtain the probability distribution of nucleation induction time. To obtain the average induction time τ, statistical analysis on the induction time data was conducted based on the understanding that nucleation follows a Poisson distribution. According to Poisson statistics, the probability for a nucleation event to occur beyond time t is P=exp(−t/τ), which implies that the fraction of vials without nucleation at time t exponentially decays as a function of time, where the scaling factor for time is the average induction time.
For determining the statistical analysis of aspirin nucleation induction time with PEGDA particles of various mesh sizes (particles denoted by Mn), 1.9 mL of 38 mg/ml ASA solution in 38/62 ethanol/water (v/v) with 15 μg/mL PEGDA particles was cooled at a rate of 5° C./min from 35° C. to 15° C. to achieve a supersaturation of 2.1. The solution was stirred at 700 rpm. The onset of nucleation was detected by an IR probe which measures the transmission signal through the solution. A total of 10 vials were cycled for 5-10 times to yield 50-100 nucleation induction time measurements for the statistical analysis.
The nucleation rate, J, is given by J=1/τV, where τ the average induction time (Table 1) and V the volume of solution. For this equation to be valid, the assumption is that the crystal growth rate is much faster than the nucleation rate, which is the case for ASA. […] Other crystallization conditions were kept the same.
[…] The solution was stirred at 700 rpm. The onset of nucleation was detected by an IR probe which measures the transmission signal through the solution. A total of 10 vials were cycled for 5-10 times to yield 50-100 nucleation induction time data for the statistical analysis.
Effect of polymer gels on nucleation induction time statistics: To evaluate the impact of polymer-solute interactions on nucleation kinetics, induction times of ASA and ACM were measured with microgels of a series average mesh sizes before and after chemical modification suspended in respective supersaturated solutions. […] For each system, a large number of experiments (50-100) were conducted to obtain the induction time probability distribution. The nucleation induction time generally follows the Poisson distribution. However, deviations can occur, as observed in this study, when there is more than one type of nucleation sites in a sample, giving rise to multiple Poisson processes with different characteristic time scales.
For samples with PEGMDA microgels, the nucleation induction time distributions reported in previous work can be faithfully described by stretched exponentials (Tables 5 and 6), P=exp[−(t/τ)^β], where P is the probability to observe no crystallization event within time t, τ the average induction time. The stretched exponential exponent β served as a measure for the spread of time scales characterizing the nucleation process, or the distribution of kinetic barriers arisen from the heterogeneity of the system. Such heterogeneity can be attributed to the heterogeneity of the polymer microstructure identified using SANS, which resulted from a distribution of nucleation sites arising from spatial variations in both the mesh size and chemical composition of the hydrogel at nanometer length scales. Note that β varies with the average mesh size of the microgel. […]

[1] = PEGDA-co-AM microgels M 130 g/mol
[2] = PEGDA-co-AM microgels M 200 g/mol
[3] = PEGDA-co-AM microgels M 400 g/mol
[4] = PEGDA-co-AM microgels M 575 g/mol
[5] = PEGDA-co-AM microgels M 700 g/mol

average nucleation induction time τ (ASA S = 2.1, Bulk (no particles), 38/62 ethanol/water): ∞ | average nucleation induction time τ (ASA S = 2.1, PEGDA microparticles Mn 130 g/mol, 38/62 ethanol/water): ∞ | average nucleation induction time τ (ASA S = 2.1, PEGDA microparticles Mn 200 g/mol, 38/62 ethanol/water): 910 ± 40 min | average nucleation induction time τ (ASA S = 2.1, PEGDA microparticles Mn 400 g/mol, 38/62 ethanol/water): 60 min | average nucleation induction time τ (ASA S = 2.1, PEGDA microparticles Mn 400 g/mol, 38/62 ethanol/water, listed as ASA): 63 ± 3 min | average nucleation induction time τ (ASA S = 2.1, PEGDA microparticles Mn 575 g/mol, 38/62 ethanol/water): 1900 ± 100 min | average nucleation induction time τ (ASA S = 2.1, PEGDA microparticles Mn 700 g/mol, 38/62 ethanol/water): 6600 ± 1100 min | average nucleation induction time τ (ASA S = 3.3, Bulk (no particles), 38/62 ethanol/water): 2500 ± 600 min | average nucleation induction time τ (ASA S = 3.3, PEGDA microparticles Mn 130 g/mol): 330 ± 60 min | average nucleation induction time τ (ASA S = 3.3, PEGDA microparticles Mn 200 g/mol): 52 ± 3 min | average nucleation induction time τ (ASA S = 3.3, PEGDA microparticles Mn 400 g/mol): 123 ± 7 min | average nucleation induction time τ (ASA S = 3.3, PEGDA microparticles Mn 700 g/mol): 240 ± 20 min | Average nucleation induction time τ (stretched exponential fit) (Bulk / PEGDA microgels M 130 g/mol): Not detectable | Average nucleation induction time τ (stretched exponential fit) (PEGDA microgels M 200 g/mol): 1052 min | Average nucleation induction time τ (stretched exponential fit) (PEGDA microgels M 400 g/mol): 66.7 min | Average nucleation induction time τ (stretched exponential fit) (PEGDA microgels M 575 g/mol): 3500 min | Average nucleation induction time τ (stretched exponential fit) (PEGDA microgels M 700 g/mol): 210000 min | τ1 (two-exponential fit) [1]: 170 min | τ2 (two-exponential fit) [1]: 4900 min | τ1 (two-exponential fit) [2]: 21 min | τ2 (two-exponential fit) [2]: 99 min | τ1 (two-exponential fit) [3]: 39 min | τ2 (two-exponential fit) [3]: 400 min | τ1 (two-exponential fit) [4]: 51 min | τ2 (two-exponential fit) [4]: 470 min | τ1 (two-exponential fit) [5]: 33 min | τ2 (two-exponential fit) [5]: 720 min | optimum mesh size for inducing ASA nucleation (8° C, higher supersaturation (3.4)): 10 Å | optimum mesh size for inducing ASA nucleation (15° C, supersaturation 2.1): approximately 15 Å | promotion of nucleation kinetics when AM co-monomer was introduced into the PEGDA matrix (PEGDA-co-AM vs PEGDA microgels): up to four orders of magnitude | best enhancement in nucleation kinetics by addition of PEGDA particles (vs bulk, Table 2): many orders of magnitudes
Compound: CC(=O)Oc1ccccc1C(=O)O [aspirin]
